Results on 16 compounds are retold here after patent US7282507B2, “Indole derivatives as selective androgen receptor modulators (SARMS)” (Janssen Pharmaceutica N.V., priority 2004, dated 2007).

For test [1], the target named is T1, androgen receptor (AdEasy+rAR, COS-7 cells) (Rattus norvegicus, UniProt P15207).
T1 construct: expressed in transfected cells; host or cells: COS-7 cells transduced with adenovirus AdEasy+rAR
T1 sequence (P15207 1-902): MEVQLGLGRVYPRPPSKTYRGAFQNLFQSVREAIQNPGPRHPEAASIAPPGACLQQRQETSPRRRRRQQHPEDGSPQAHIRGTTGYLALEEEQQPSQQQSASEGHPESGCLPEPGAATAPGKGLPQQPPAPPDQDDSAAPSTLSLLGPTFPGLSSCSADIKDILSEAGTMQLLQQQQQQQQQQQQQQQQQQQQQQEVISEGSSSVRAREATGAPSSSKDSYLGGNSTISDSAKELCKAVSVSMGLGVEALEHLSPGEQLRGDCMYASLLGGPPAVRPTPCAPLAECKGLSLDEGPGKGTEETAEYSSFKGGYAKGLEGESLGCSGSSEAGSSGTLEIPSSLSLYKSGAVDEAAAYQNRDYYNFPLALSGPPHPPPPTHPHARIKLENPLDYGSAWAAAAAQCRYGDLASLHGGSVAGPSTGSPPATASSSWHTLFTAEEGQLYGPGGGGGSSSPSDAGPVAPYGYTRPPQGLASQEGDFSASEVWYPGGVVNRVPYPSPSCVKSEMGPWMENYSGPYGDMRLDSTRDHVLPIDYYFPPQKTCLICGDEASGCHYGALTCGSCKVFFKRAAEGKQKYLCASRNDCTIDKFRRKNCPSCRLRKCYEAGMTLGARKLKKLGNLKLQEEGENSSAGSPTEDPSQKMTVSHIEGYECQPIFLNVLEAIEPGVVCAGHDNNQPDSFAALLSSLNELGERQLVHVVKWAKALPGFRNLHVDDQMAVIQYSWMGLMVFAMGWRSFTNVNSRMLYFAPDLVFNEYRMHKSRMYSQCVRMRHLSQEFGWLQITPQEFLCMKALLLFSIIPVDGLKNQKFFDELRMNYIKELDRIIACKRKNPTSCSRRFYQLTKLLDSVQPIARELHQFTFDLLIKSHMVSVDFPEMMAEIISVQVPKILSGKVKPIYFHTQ
Description: COS-7 Whole-Cell Androgen Receptor Binding Assay, Adenovirus Transduction. The protocol: COS-7 cells were plated in 96-well plates at 20,000 cells per well, in a solution of DMEM/F12 (GIBCO) containing 10% (v/v) charcoal-treated fetal bovine serum (Hyclone) and lacking phenol red. The cells were then incubated overnight at 37° C. in 5% (v/v) humidified CO2.
Test compound solutions were prepared by diluting the test compound in 100% (v/v) DMSO, if necessary.
Next, 1 mL of DMEM/F12 lacking phenol red was pipetted into each of the wells of a 2-mL 96-well assay block. […] The wells were carefully mixed by pipette.
In a 15 mL or 50 mL sterile centrifuge tube, a dilution in DMEM/F12 of the adenovirus AdEasy+rAR at a moi of 1:50 per well was prepared.
The medium was removed from the 96-well plates by inversion and the plates dried very briefly, inverted, on a sterile towel. As soon as possible after medium removal, 40 μL of the diluted test compound was added to each well, in duplicate. […] The plates were then incubated for 48 hours at 37° C. in 5% (v/v) humidified CO2.
The medium was removed from the above incubated plates by inversion and dried. Each well was then washed with 0.35 mL of 1× PBS. The PBS was then removed from the plates by inversion and the plates dried.
To each well was then added 50 μL of 0.5% (v/v) Triton X-100 (Sigma) in 1× PBS and the plates placed on a rotary shaker for 5 min. The contents of each well were then transferred to an OptiPlate-96 (Packard) scintillation plate. To each well was then added 0.2 mL of Microscint-20 (Packard) and the wells counted on a TopCount (Packard).
Percent inhibition was determined by testing dilutions of the test compound (usually duplicates of 10 μM) in the binding assay. Counts per well were measured and percents of inhibition determined. […] Counts per well were measured and IC50s determined by linear regression.

In test [2] the test system is testosterone-enhanced ventral prostate and seminal vesicle weights. Briefly: Ventral Prostate and Seminal Vesicle Weight in vivo Assay. Further: key: 'active' if the non weight adjusted prostate weight was ≦40 mg or the % Inhibition prostate weight, body weight adjusted was ≧40% @ 2 mg/day dosage; ID50's, if determined, of ≦15 mg/day also indicated an 'active' compound; listed herein as 'inactive' as they did not meet the specified criteria defined above. More on the design: species or system rat. The settings on record: immature castrated male Sprague Dawley rats, once daily for five days, usually orally 40 mg/kg, with testosterone propionate 2 mg/kg s.c. Summed up: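 Wet weights of ventral prostate and seminal vesicles were taken on day six. Castrated immature male Sprague Dawley rats had received five daily doses of testosterone propionate (2 mg/kg s.c.) together with test compound, typically 40 mg/kg orally. Activity was scored from absolute prostate weight or body-weight-adjusted % inhibition.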

Test [3] addresses T2, androgen receptor (AdEasy+rAR, L929 cells) (Rattus norvegicus, UniProt P15207).
T2 construct: expressed in transfected cells; host or cells: L929 cells transduced with adenovirus AdEasy+rAR
T2 sequence (P15207 1-902): T1 sequence (P15207 1-902)
Description: L929 Androgen Receptor Functional Assay, Adenovirus Transduction. The class given is cell-based. The settings on record: for % Activity, L929 androgen receptor functional assay: agonist testing, 3000 nM; for inhibition at 3 µM: L929, antagonist testing with R1881, 3000 nM. Put shortly: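 Luminescent reporter readout after 48 h at 37 °C: rat AR delivered by adenovirus (AdEasy+rAR, moi 1:500) into L929 cells grown without phenol red in charcoal-treated serum. Antagonist wells also received R1881 (2.5× dilution at 2.5 nM).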

In test [4] the target is T3, androgen receptor (rat ventral prostate cytosol) (Rattus norvegicus, UniProt P15207).
T3 construct: from tissue; host or cells: ventral prostate cytosol of castrated male Sprague Dawley or Wistar rats
T3 sequence (P15207 1-902): T1 sequence (P15207 1-902)
Description: Androgen Receptor Binding Using Rat Ventral Prostate Cytosol. To be noted: Concentration 3000 nM. The protocol:
The assay was run on a 96 well plate with each well filled with a total reaction volume 150 μL, of a solution containing 5 pmol androgen receptor LBD (Panvera) or 30 μL of freshly prepared rat cytosol, 0.5 nM [^3H] […] (TED buffer contains 10 mM Tris.HCl pH 7.4, 1 mM sodium molybdate, 1.5 mM EDTA, 1 mM DTT and 10% (v/v) glycerol.)
On day one, the solution containing receptor, tracer and TED buffer was distributed into a 96 well plate. Diluted test compound or control vehicle was then added to individual wells and the plate incubated at 4° C. overnight.
On day two, to each well was then added 20 μL human γ-globulin (ICN 823102), prepared at 25 mg/ml in TE pH 8.0, and 55 μL 40% polyethylene glycol 8000 (J T Baker U222-08), prepared in TE pH 8.0. The plate was incubated at 4° C. for 60 minutes. During incubation, the harvester was rinsed with 10% PEG 8000, prepared in TE pH 8.0, and a GF/C Unifilter-96 was pre-wet with 10% PEG. The binding reaction was filtered, the retentate was washed three times with 10% PEG and dried under vacuum for a couple of minutes, then dried at 50° C. for 5 min and the plate was bottom sealed. Next, 25 μL of Microscint-20 (Packard) was added to the filter wells and the plate was top sealed. The plate wells were then counted on a TopCount (Packard).
Rat Prostate Cytosol Preparation:
Male Sprague Dawley or Wistar rats (Charles River, 200-300 g) were used for each preparation. The day before preparing the cytosol, the rats were castrated using standard surgical procedures.
The rats were euthanized by carbon dioxide asphyxiation. The rat prostates were quickly removed and placed on ice in pre-chilled, pre-weighed 50 mL plastic tubes. No more than five prostates were placed into one tube. The tubes were then weighed and the prostate tissue wet weights calculated.
To the chilled prostate tissue was then added […] of chilled homogenization buffer. The homogenization buffer was freshly prepared by mixing 10 mM Tris.HCl, pH 7.4, 1 mM sodium molybdate, 1.5 mM EDTA, 1 mM dithiothreitol, 10% (v/v) glycerol and 1% protease inhibitor cocktail (Sigma P 8340).
The prostate tissue was homogenized in a cold room using a pre-chilled Polytron PT3000 homogenizer (Brinkmann). Homogenization was performed at a speed setting of 20, three times for 10 sec bursts. The tubes containing the prostate tissue was kept on ice while homogenizing. The homogenate was allowed to rest on ice for 20 sec between bursts.
The homogenate was then placed into pre-chilled 3 mL polycarbonate ultracentrifuge tubes and centrifuged in the TLA-100 rotor of a TL-100 ultracentrifuge for 12 min at 100,000 rpm at 4° C. The resulting supernatant was stored in 1 mL aliquots at −80° C. until needed.
Binding to the androgen receptor was determined according to the protocol described in Example 86 using the above prepared rat cytosol.
% Inhibition was determined by testing dilutions of the test compound (usually duplicates of 10 μM) in the binding assay. Counts per well were measured and percents of inhibition determined. […] Counts per well were measured and IC50s determined by linear regression.

Setting [5] is: read-out: IC50 (nM), COS Binding.

Read-outs that look alike come from different tables or passages of the source.

What is called IC50 is the point on the concentration scale where inhibition reaches its midpoint. With `CCS(=O)(=O)CC(C)(O)c1cc2cc([N+](=O)[O-])c(C(F)(F)F)cc2[nH]1` (centres unmarked) [Compound 175], the IC50 in test [1] (setting [5]) is greater than 3000 nM. Further, the “active / inactive: inhibition of testosterone-enhanced prostate weight” value (shortened to “active / inactive: inhibition”) in test [2] is recorded as “active”.
In general, inhibition refers to the share of the control response that was lost under treatment. On to `CCSCC(C)(O)c1[nH]c2cc(C(F)(F)F)c([N+](=O)[O-])cc2c1C#N` (centres unmarked) [Compound 242], for which the inhibition at 3 µM in test [1] (concentration of 3000 nM) turned out to be 92%. In test [1] (setting [5]), the IC50 was found to be 305 nM. Moreover, the “active / inactive: inhibition” value in test [2] is “inactive”.
For `CCSCC(C)(O)c1cc2cc(Cl)ccc2n1S(C)(=O)=O` (racemic) [Compound 154], the “% Inhibition, COS Binding” value in test [1] (concentration of 3000 nM) worked out at 50%. Moreover, the “% Activity, L929 androgen receptor functional assay” value (shortened to “% Activity”) in test [3] came to 2%. In addition, in test [3] (antagonist testing with R1881, 3000 nM), the “% Inhibition, L929 androgen receptor functional assay” value turned out to be 7%.
The compound `CC(O)(CSc1ccc(C(=O)O)cc1)c1cc2cc(Cl)c(C(F)(F)F)cc2n1S(C)(=O)=O` (centres unmarked) [Compound 132] registered an IC50 in test [1] (IC50 (nM), COS Binding) greater than 3000 nM. Also, the inhibition at 3 µM in test [1] (concentration of 3000 nM) was determined as 8.7%. In test [3], at 3 µM the inhibition was 48% and the “% Activity” value is reported as −5%.
With `CSCC(C)(O)c1cc2cc(Cl)c(C(F)(F)F)cc2n1S(C)(=O)=O` (centres unmarked) [Compound 134], the IC50 in test [1] (setting [5]) is greater than 10000 nM. Besides, in test [2], the “active / inactive: inhibition” value is “inactive”.
With `CCSCC(C)(O)c1cc2ccc(C(F)(F)F)cc2n1S(C)(=O)=O` (centres unmarked) [Compound 214], the IC50 in test [1] (setting [5]) is greater than 3000 nM.
For `CCSCC(C)(O)c1cc2cc(C#N)c(Cl)cc2[nH]1` (centres unmarked) [Compound 225], the figures for the inhibition at 3 µM in test [1] (concentration of 3000 nM) and in test [3] were 82% and 97%, respectively. Also, the figures for the IC50 in test [1] (setting [5]) and in test [3] (antagonist testing with R1881) were 142 nM and 229 nM, respectively. The “% Activity” value in test [3] was 1%.
For `O=[N+]([O-])c1cc2cc(C3(O)CCSCC3)[nH]c2cc1C(F)(F)F` [Compound 17], the IC50 in test [1] (setting [5]) is greater than 1500 nM. The “active / inactive: inhibition” value in test [2] is “inactive”.
`CCSCC(C)(O)c1[nH]c2cc(C(F)(F)F)c([N+](=O)[O-])cc2c1C#N` (single isomer, unassigned) [Compound 247] returned an inhibition at 3 µM in test [1] (concentration of 3000 nM) of 90%. Further, the IC50 in test [1] (setting [5]) is 60.7 nM. In addition, the “active / inactive: inhibition” value in test [2] is “inactive”.
`CC(C)SC(C)(CO)c1cc2cc([N+](=O)[O-])c(C(F)(F)F)cc2[nH]1` (racemic) [Compound 268]: the “% Inhibition, Androgen Receptor Binding (Rat Cytosol)” value (from here on “% Inhibition … (Rat Cytosol)”) in test [4] is −3.3%. Besides, in test [2], the “active / inactive: inhibition” value is “inactive”. Also, the “% Activity” value in test [3] is 9%.
Regarding `CCSCC(C)(O)Cc1cc2cc([N+](=O)[O-])c(C(F)(F)F)cc2[nH]1` (centres unmarked) [Compound 10], the IC50 in test [1] (setting [5]) was greater than 3000 nM. The “active / inactive: inhibition” value in test [2] was “inactive”.
Consider `CCS(=O)(=O)CC(C)(O)c1[nH]c2cc(C(F)(F)F)c(C#N)cc2c1C` (racemic) [Compound 246], for which the inhibition at 3 µM in test [1] (concentration of 3000 nM) is 70%. Moreover, the IC50 in test [1] (setting [5]) is 616 nM.
With `CC(O)(Sc1ccc(N)cc1)c1cc2cc([N+](=O)[O-])c(C(F)(F)F)cc2[nH]1` (racemic) [Compound 266], the “% Inhibition … (Rat Cytosol)” value in test [4] came to 12.4%. The “active / inactive: inhibition” value in test [2] is “inactive”. The “% Activity” value in test [3] is −4%.
Take `CCSCC(C)(CO)c1cc2cc([N+](=O)[O-])c(C(F)(F)F)cc2[nH]1` (centres unmarked) [Compound 11]: the IC50 in test [1] (setting [5]) was greater than 3000 nM. The “active / inactive: inhibition” value in test [2] was “inactive”.
In turn, `COc1ccc(S(=O)(=O)CC(C)(O)c2cc3cc(Cl)c(C(F)(F)F)cc3n2S(C)(=O)=O)cc1` (centres unmarked) [Compound 128] gave an IC50 in test [1] (IC50 (nM), COS Binding) greater than 1500 nM. Further, in test [1] (concentration of 3000 nM), the inhibition at 3 µM was found to be 21%. Moreover, in test [3], the inhibition at 3 µM turned out to be 44% and the “% Activity” value is recorded as −4%.
On to `CC(O)(CS(=O)(=O)Cc1ccccc1)c1cc2cc([N+](=O)[O-])c(C(F)(F)F)cc2[nH]1` (racemic) [Compound 162], for which, in test [4], the “% Inhibition … (Rat Cytosol)” value was found to be 0.69%. The “active / inactive: inhibition” value in test [2] was “inactive”. In addition, in test [3], the “% Activity” value is on record as 2%.
